Experimental findings from patent US20240181125A1, “COMPOSITIONS AND METHODS FOR SCARLESS WOUND HEALING IN DIABETES” (Washington University, priority 2022, published 2024) are described below.

Entries after “also recorded” stand apart in the source; their conditions may differ. Bridge positions count the residues as written; N and C are the ends. Peptide text beside a SMILES is read from it. * marks the point of attachment. FITC = O=C1OC2(c3ccc(O)cc3Oc3cc(O)ccc32)c2ccc(NC(=S)*)cc21

One test has as its system HDFs. As to the kind of experiment: 2D scratch migration assay, HDF. The class given is cell-based, human. Conditions: high glucose and TGFβ1, 72 hours. As to the method: HDFs, HaCaTs, and HAECs were cultured in 6-well plates using serum-free high glucose (4.5 g/L) basal medium with 1% P/S. After the cells reached confluency, a 200-μL pipet tip was used to scrape the cell monolayer. Then 3 mL of medium containing TGFβ1 (10 ng/ml) or TGFβ1 (10 ng/ml)/PTβR2I (10 μg/mL) was added to the wells. The cells were imaged at predetermined time points using a bright-field microscope. The distances between the scratch walls were measured using ImageJ to calculate the migration ratio

The subject of test [1] is diabetic wounds of db/db mice. The experiment in a line: Example 5 wound dressings on full-thickness excisional diabetic wounds. The class given is in vivo. As to the method:
After three days post-wound assay on db/db mice, the wounded tissues were collected and lysed. The protein concentrations were quantified by Bradford assay. The samples were tested using a Proteome Profiler Mouse Angiogenesis Array kit (R&D Systems) and a Mouse Cytokine Array kit (R&D Systems). The intensities of the dots on the membranes in the kits were quantified using Image Lab software. Eight-week-old, female db/db mice were used. Carprofen tablets (1/4 tablet per mouse) were given orally 48 hours before surgery and continued for seven days after the surgery as an analgesic. One day before surgery, the blood glucose levels of the mice were tested with a glucometer to confirm they were above 300 mg/dL. The mice were anesthetized by isoflurane inhalation, and the dorsal surface was thoroughly shaved. Then a 5-mm diameter biopsy punch (VWR) was used to create two symmetric full-thickness wounds on the back of each mouse. Next, 100 μL of liquid wound dressing, with or without 50 μg/mL of PTβ[…], was applied topically to the wound sites. The mice were observed every other day, and digital photographs of the wounds, with a ruler at the side, were acquired by a digital camera. Wound sizes were calculated using Image J. For in vitro tests, protein lysates were collected from HDFs. Pre-cooled cell scrapers were used to detach the cells, and the cells were re-suspended in RIPA lysis buffer with the inhibitor cocktail. For in vivo tests, wound skin tissues were washed three times with pre-cooled DPBS, dissected into small pieces, and re-suspended in RIPA lysis buffer containing protease and phosphatase inhibitors. […] After centrifugation at 12,000 g for 20 min, the supernatants were collected, and protein concentrations were measured using a Bradford protein assay kit (Bio-rad). […] Immunoblots were then washed with PBST and detected with a WesternBright HRP substrate detection kit (Advansta). […] The epidermal thickness was calculated from the MTS images in the wounded region. […] Images were acquired by Olympus confocal microscope and analyzed using ImageJ.

The test system of a further test is wounds of db/+ mice. The experiment in a line: Wound assay on non-diabetic db/+ mice. Conditions: mouse, in vivo. As to the method:
The same wound assay was performed on db/+ mice and monitored the wound closure for eight days (FIG. 11A). The No-treatment, Gel, and PTβR2I/Gel groups all had similar healing rates, with wound sizes less than 10% of the original after 8 days (FIG. 11B and C). To delineate the mechanism, in vitro immunoblotting was performed on dermal fibroblasts under normal glucose conditions that mimicked the microenvironment of db/+ mice (FIG. 11D).

A further test deals with TGFβ1/p38 pathway. The experiment in a line: Immunoblotting of p-p38 in HDFs. The class given is cell-based, human. As to the method: For in vitro tests, protein lysates were collected from HDFs. Pre-cooled cell scrapers were used to detach the cells, and the cells were re-suspended in RIPA lysis buffer with the inhibitor cocktail. For in vivo tests, wound skin tissues were washed three times with pre-cooled DPBS, dissected into small pieces, and re-suspended in RIPA lysis buffer containing protease and phosphatase inhibitors. Homogenization was then performed thereafter with an ultrasonic processor (Cole Parmer). After centrifugation at 12,000 g for 20 min, the supernatants were collected, and protein concentrations were measured using a Bradford protein assay kit (Bio-rad).
The protein samples were separated by 10% Mini-PROTEAN TGX stain-free precast gels (Bio-rad) and transferred onto an immune-blot PVDF membrane. The blots were washed three times with DPBS containing 0.1% Tween 20 (PBST), blocked with 5% milk powder in PBST buffer for 40 min, and incubated with primary antibodies at specific dilutions overnight at 4° C. The primary antibodies included rabbit GAPDH antibody (1:5000, Cell signaling), rabbit anti-a-smooth muscle actin (α-SMA) antibody (1:2000, Cell signaling), rabbit anti-phospho-Smad2(Ser465/467)/Smad3 (Ser423/425) (1:500, Cell signaling), and rabbit anti-phospho-p38 (1:500, Cell signaling). The membranes were washed three times with PBST and incubated with horseradish peroxidase (HRP)-conjugated secondary antibodies (1:2500). Immunoblots were then washed with PBST and detected with a WesternBright HRP substrate detection kit (Advansta). The ChemiDoc XPS+system (Bio-rad) was used to image the blots.
In general terms: Immunoblotting shows a protein as a band on a membrane.

A further test has as its system HaCaTs. As to the kind of experiment: mRNA expression (RT-PCR), HaCaTs. Type of test: cell-based, human. The settings on record: high glucose and TGFβ1. As to the method:
To determine the mRNA expression of the cells (HDFs, HaCaTs, and HAECs) treated with TGFβ1 (10 ng/ml) or TGFβ1 (10 ng/ml)/PTβR2I (10 μg/mL) under high glucose conditions, RNA was extracted using Trizol (Invitrogen) and reverse transcribed using a cDNA synthesis kit (Applied Biosystems). Gene expression was performed by real-time RT-PCR, using Maxima SYBR Green/Fluorescein Master Mix (Thermofisher) and selected primer pairs, shown in Table 1 below. β-actin served as the housekeeping gene. The ΔΔCt method was used for data analysis.

`CC(C)C[C@@H]1NC(=O)CNC(=O)[C@@H](NC(=O)[C@@H](N)CCC(=O)O)CSSC[C@@H](C(=O)N[C@@H](CCCCNC(=S)Nc2ccc3c(c2)C(=O)OC32c3ccc(O)cc3Oc3cc(O)ccc32)C(=O)O)NC(=O)[C@H](CC(C)C)NC(=O)[C@H](CCCNC(=N)N)NC(=O)[C@H](Cc2c[nH]c3ccccc23)NC(=O)[C@H](C(C)C)NC(=O)[C@H](CCCNC(=N)N)NC(=O)[C@H](CC(=O)O)NC(=O)[C@@H]2CCCN2C(=O)[C@H](CCCNC(=N)N)NC(=O)CNC(=O)[C@H](C(C)C)NC(=O)[C@@H]2CCCN2C(=O)[C@H](CC(C)C)NC1=O` [PTβR2I, ECGLLPVGRPDRVWRLCK-FITC] (H-ECGLLPVGRPDRVWRLCK(FITC)-OH; disulfide 2-17; N-terminus and C-terminus assumed): the migration entry in the test with HDFs is on record as “significantly higher number of cells had migrated”. Besides, the “expression of p-Smad2/3 in wounded skin” value in test [1] (day 3) is on record as “downregulated”. Besides, the “expressions of p-Smad2/3 and α-SMA in wounded skin” value in test [1] (day 8) is on record as “without compromising”. For the same compound, in test [1] (days 3 and 8, vs Gel group), the “expression of p-p38 in wounded skin” value is given as “downregulated; also recorded: continued to downregulate”. Also, in the test on wounds of db/+ mice, the “efficacy on db/+ mice” value is “not effective”. Moreover, the p-p38 expression result with TGFβ1/p38 pathway (high glucose, with TGFβ1) is reported as “significantly downregulated”. Also, in the test on TGFβ1/p38 pathway (normal glucose), the p-p38 entry is “did not downregulate”. Besides, in the test with HaCaTs, the “IL1B mRNA expression” value is recorded as “significantly reduced” and the “IL6 mRNA expression” value was “significantly reduced”.
